Source: US7671181B2, “Polynucleotides encoding coccidian parasite casein kinase I, a chemotherapeutic target for antiprotozoal agents” (Merck Sharp & Dohme Corp., priority 2004, dated 2010)

Columns and labels:
[1] = target: EtCKIα (Eimeria tenella, UniProt Q6QNL9); assay: Casein kinase assay, partially purified native EtCKIα; assay type: biochemical; details: partially purified native enzyme from Eimeria oocysts; read-out: IC50, nativeEtCKIα
Protocol: (§1) Protein kinase assays—Casein kinase activity was assayed essentially as described (Donald, R. G. K. et al., 2002, supra) using 96-well phosphocellulose plates (MAPH-NOB, Millipore; Billerica, Mass.) to capture ^33P-phosphorylated peptide or casein substrates. Kinase reactions were carried out in 40 μl volumes containing 25 mM Hepes, pH 7.4, 10 mM MgCl2, 20 mM β-glycerophosphate, 1 mM DTT, 250 μM substrate, 1 mg/mL BSA, 2 μM ATP, and 0.01 μM [γ-^33P]ATP (Perkin-Elmer, 3000 Ci/mmol). The reactions were initiated by the addition of enzyme and incubated at room temperature for 60 min. Casein (5% solution), partially dephosphorylated α-casein and β-casein were obtained from Sigma.
(§2) A variety of commercially available peptide substrates were evaluated. From Calbiochem (San Diego, Calif.): CKI substrate (RRKDLHDDEEDEAMSITA; SEQ ID NO:13); CKII substrate (RRADDSDDDDD; SEQ ID NO:14); Syntide-2 substrate (PLARTLSVAGLPGKK; SEQ ID NO:15); CaM kinase II substrate (281-291) (MHKNETVECLK; SEQ ID NO:16). From Promega: CKI substrate (DDDEESITRR; SEQ ID NO:17) and kemptide (LRRASLG; SEQ ID NO:18). From New England Biolabs (Beverly, Mass.): CKI phosphopeptide substrate (KRRRALS(p)VASLPGL; SEQ ID NO:19), and CKII substrate (RRREEETEEE; SEQ ID NO:20). PKG assays were performed with kemptide as substrate and 10 μM cGMP. CDPK was assayed with Syntide-2 substrate and in the presence of 100 μM CaCl2.
Partial purification of native EtCKIα—The inability to stably express recombinant EtCKIα in T. gondii provided impetus to purify native enzyme from E. tenella parasites (slide 5). A lysate was prepared from 2×10^10 unsporulated oocysts using previously published procedures (Gurnett, A. M. et al., 2002, supra). The first two steps of the purification scheme used were essentially scaled-up from the method described for the purification of native TgCKIα. The lysate was subjected to preparative HiLoad Q anion-exchange chromatography and fractions eluted with a NaCl gradient (0-1 M NaCl). […]

[2] = target: T1, TgCDPK1 (Toxoplasma gondii, UniProt Q9BJF5); assay: CDPK assay with Syntide-2, T. gondii CDPK1; assay type: biochemical
T1 construct: The TgCDPK1 open reading frame was amplified by PCR from a Toxoplasma cDNA library; made in house
Protocol: as §1, §2
Purification of recombinant TgCDPK1 and TgPKG—The TgCDPK1 open reading frame was amplified by PCR from a Toxoplasma cDNA library, using primers based on the published sequence (Kieschnick et al., 2001, supra): sense primer, […] (SEQ ID NO:44); and, antisense primer, […] (SEQ ID NO:45). A C-terminal FLAG epitope tag was appended to the TgCDPK1 open reading frame by an additional round of PCR amplification (KOD polymerase) and the resulting DNA fragment was sub-cloned into a tubulin promoter expression vector (Donald and Liberator, 2002, supra). […]

[3] = target: FLAGTgCDPK3 (Toxoplasma gondii, UniProt A0A125YQG4); assay: Protein kinase assay, FLAGTgCDPK3; assay type: biochemical; details: read-out: IC50, FLAGTgCDPK3; recombinant enzyme, dose response titrations
Protocol: as §1, §2

[4] = target: FLAGEtCDPK1 (Eimeria tenella, UniProt Q3HNM4); assay: Protein kinase assay, FLAGEtCDPK1; assay type: biochemical; details: recombinant enzyme, dose response titrations
Protocol: as §1, §2

[5] = target: T2, EtPKG (Eimeria tenella, UniProt Q8MMZ8); assay: PKG assay with kemptide, native EtPKG; assay type: biochemical; details: native enzyme from Eimeria oocysts; read-out: IC50, nativeEtPKG
T2 construct: Eimeria oocysts (EtCKIα and EtPKG); from tissue; host or cells: Eimeria oocysts
Protocol: as §1, §2

[6] = target: TgCKIα (Toxoplasma gondii, UniProt Q6QNM1); assay: Casein kinase assay, TgCKIα (recombinant FLAGTgCKIα or partially purified native); assay type: biochemical; design: Km(app), native TgCKIα; other: substrate titration, 2 μM ATP; IC50, nativeTgCKIα; other: partially purified native enzyme from Toxoplasma tachyzoites; sensitivity of native TgCKIα phosphopeptide kinase activity (HiTrapQ fractions 5-9); other: 0.2 μM hymenialdisine or 1
Protocol: as §1, with “The reactions were initiated by the addition of enzyme and incubated at room temperature for 60 min.” left out
as §2
Purification of recombinant CKI enzymes—E. coli strain BL21 Origami™ (Novagen) was transformed with FLAGTgCKIα and FLAGTgCKIβ expression vectors, and colonies were expanded into 250 mL LB cultures grown at 37° C. Expression was induced with 1 mM IPTG once cultures had reached an OD600nm of 0.3-0.5, and the transformed bacteria were harvested 4-6 hours later. Cell pellets were resuspended in 15 mL of lysis buffer containing protease inhibitors and lysates prepared as described by the supplier (Bugbuster™ reagents, Novagen). The concentration of NaCl in the lysate was adjusted to 0.5 M, and 0.5 mL of FLAG-agarose beads were added (Sigma). The mixture was allowed to rock in a Nutator mixer (Becton-Dickinson; San Jose, Calif.) for 2 hours at 4° C. The slurry was then poured into an empty column and the matrix washed with 50 mL of wash buffer (50 mM Tris-HCl, pH 7.4, 0.5M NaCl, 10% glycerol, 1 mM DTT, 1 mM EDTA). […] Protein was measured with a micro-BCA reagent (Pierce) following a TCA-sodium deoxycholate step to remove residual FLAG peptide (Brown et al., 1989, Anal. Biochem. 180:136-139). […]
(§3) Preparations of FLAGTgCKIα and FLAGTgCKIβ were purified further on a SMART system FPLC 0.1 mL MonoQ anion exchange column (Pharmacia; New York, N.Y.) equilibrated in buffer A (50 mM Hepes, pH 7.4, 10% glycerol, 1 mM DTT) at room temperature. […] A linear salt gradient was applied (0-500 mM in 3 mL at 100 μl/min) and 100 μl fractions were collected and analyzed by SDS-PAGE and for CKI activity. […]

[7] = system: T. gondii; assay: Parasite growth inhibition, modified [3H]-uracil uptake assay in infected HFF cell monolayers; assay type: cell-based, Toxoplasma gondii; details: Toxoplasma gondii, HFF
Excerpt: Host cells and parasite cultures—RH strain or RH ΔHXGPRT strain tachyzoites of T. gondii were maintained by serial passage in confluent monolayers of human foreskin fibroblasts (“HFF”) as described (Roos, D. S. et al., 1994, Methods Cell Biol. 45:27-63). A modified [^3H]-uracil uptake assay (Pfefferkorn, E. R. and Pfefferkorn, L. C., 1977, J. Protozool. 24:449-453) adapted for use in 96-well scintillation plates (Cytostar-T, Amersham; Piscataway, N.J.) was used to measure parasite growth inhibition. Each well, previously seeded with HFF cells, was inoculated with T. gondii tachyzoites (2×10^4) in 200 μl of growth media containing 2 μCi [5,6]-^3H-uracil (Perkin-Elmer NEN; Boston, Mass.) and serially diluted compound. Following incubation at 37° C. for 36-48 hours, tritium-incorporation into host cell monolayers was directly counted in a microplate scintillation counter (MicroBeta, PerkinElmer-Wallac).
The only other CDK inhibitor with sub-μM activity against T. gondii was indirubin-3′-monoxime, which gave an IC50 value of 500 nM.

[8] = target: T3, Toxoplasma gondii casein kinase I alpha (TgCKIα), recombinant FLAG-tagged or native, SEQ ID NO:4 (Toxoplasma gondii, UniProt Q6QNM1); assay: Casein kinase assay, inhibition of TgCKIα (recombinant or native forms); assay type: biochemical
T3 construct: same protein
Protocol: as §1
A variety of commercially available peptide substrates were evaluated. From Calbiochem (San Diego, Calif.): CKI substrate (RRKDLHDDEEDEAMSITA; SEQ ID NO:13); CKII substrate (RRADDSDDDDD; SEQ ID NO:14); Syntide-2 substrate (PLARTLSVAGLPGKK; SEQ ID NO:15); CaM kinase II substrate (281-291) (MHKNETVECLK; SEQ ID NO:16). […]
as §3

[9] = target: T4, Toxoplasma gondii calmodulin domain-like protein kinase 1 (FLAGTgCDPK1, recombinant) (Toxoplasma gondii, UniProt Q9BJF5); assay: Kinase assay, inhibition of recombinant TgCDPK1; assay type: biochemical; details: CDK inhibitor study (text to Table 2)
T4 construct: FLAG (C); made in house; host or cells: transgenic Toxoplasma gondii parasites
Protocol: as §1
A variety of commercially available peptide substrates were evaluated. […]
Purification of recombinant TgCDPK1 and TgPKG—The TgCDPK1 open reading frame was amplified by PCR from a Toxoplasma cDNA library, using primers based on the published sequence (Kieschnick et al., 2001, supra): sense primer, […] […] A C-terminal FLAG epitope tag was appended to the TgCDPK1 open reading frame by an additional round of PCR amplification (KOD polymerase) and the resulting DNA fragment was sub-cloned into a tubulin promoter expression vector (Donald and Liberator, 2002, supra). […]

T2 sequence (Q8MMZ8 whole entry): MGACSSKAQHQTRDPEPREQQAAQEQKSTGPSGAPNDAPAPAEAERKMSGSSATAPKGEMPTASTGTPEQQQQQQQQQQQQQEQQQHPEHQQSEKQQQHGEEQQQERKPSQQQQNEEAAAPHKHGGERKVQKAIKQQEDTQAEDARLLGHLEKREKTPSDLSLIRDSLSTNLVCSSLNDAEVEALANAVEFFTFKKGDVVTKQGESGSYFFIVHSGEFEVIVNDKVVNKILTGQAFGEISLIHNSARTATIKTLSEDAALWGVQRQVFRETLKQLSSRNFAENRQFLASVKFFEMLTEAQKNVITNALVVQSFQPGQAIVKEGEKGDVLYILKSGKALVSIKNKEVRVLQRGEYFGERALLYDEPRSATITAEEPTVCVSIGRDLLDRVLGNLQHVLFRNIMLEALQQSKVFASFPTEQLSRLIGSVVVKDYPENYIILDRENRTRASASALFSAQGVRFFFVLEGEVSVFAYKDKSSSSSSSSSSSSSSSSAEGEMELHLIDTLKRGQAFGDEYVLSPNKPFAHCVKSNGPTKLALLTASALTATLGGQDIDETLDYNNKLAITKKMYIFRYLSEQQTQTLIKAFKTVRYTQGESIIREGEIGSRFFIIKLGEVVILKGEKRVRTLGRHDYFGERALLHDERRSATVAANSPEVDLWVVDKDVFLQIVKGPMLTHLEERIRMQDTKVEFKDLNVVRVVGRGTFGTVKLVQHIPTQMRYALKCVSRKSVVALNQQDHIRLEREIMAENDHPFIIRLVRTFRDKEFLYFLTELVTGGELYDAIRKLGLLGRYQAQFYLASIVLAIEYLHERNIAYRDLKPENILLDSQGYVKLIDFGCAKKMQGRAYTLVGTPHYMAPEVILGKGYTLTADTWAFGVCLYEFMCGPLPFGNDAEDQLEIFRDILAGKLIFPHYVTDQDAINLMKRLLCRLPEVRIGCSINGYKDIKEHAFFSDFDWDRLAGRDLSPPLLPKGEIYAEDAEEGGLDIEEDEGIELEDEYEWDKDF
Chain of FLAGEtCDPK1 (Q3HNM4 entry or part of it): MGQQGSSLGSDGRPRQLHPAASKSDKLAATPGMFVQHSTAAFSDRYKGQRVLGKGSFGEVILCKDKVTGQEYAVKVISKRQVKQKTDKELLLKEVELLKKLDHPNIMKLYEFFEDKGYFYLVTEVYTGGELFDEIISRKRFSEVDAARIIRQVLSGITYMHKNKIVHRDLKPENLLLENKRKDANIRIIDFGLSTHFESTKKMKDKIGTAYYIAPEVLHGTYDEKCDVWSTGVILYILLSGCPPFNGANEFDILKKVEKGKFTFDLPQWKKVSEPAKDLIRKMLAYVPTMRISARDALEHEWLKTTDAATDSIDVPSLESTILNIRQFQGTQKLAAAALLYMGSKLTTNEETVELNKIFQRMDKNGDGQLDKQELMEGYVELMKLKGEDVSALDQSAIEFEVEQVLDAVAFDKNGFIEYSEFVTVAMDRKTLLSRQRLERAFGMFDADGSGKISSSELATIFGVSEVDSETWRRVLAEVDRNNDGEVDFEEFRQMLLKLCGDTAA
T4 sequence (Q9BJF5 entry or part of it): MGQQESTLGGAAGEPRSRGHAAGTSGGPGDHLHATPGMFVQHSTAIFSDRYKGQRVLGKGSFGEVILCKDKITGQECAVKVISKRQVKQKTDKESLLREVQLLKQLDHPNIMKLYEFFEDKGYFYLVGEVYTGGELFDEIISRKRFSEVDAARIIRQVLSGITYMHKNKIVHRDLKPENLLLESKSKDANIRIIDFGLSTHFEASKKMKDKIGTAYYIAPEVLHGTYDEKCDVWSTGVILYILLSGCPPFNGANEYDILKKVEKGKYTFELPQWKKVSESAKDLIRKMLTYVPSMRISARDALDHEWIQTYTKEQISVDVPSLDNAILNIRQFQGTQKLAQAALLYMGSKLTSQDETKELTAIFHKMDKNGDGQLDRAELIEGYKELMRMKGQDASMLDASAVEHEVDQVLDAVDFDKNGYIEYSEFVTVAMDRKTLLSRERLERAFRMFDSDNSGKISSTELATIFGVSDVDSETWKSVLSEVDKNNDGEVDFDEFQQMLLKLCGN
T1 sequence (Q9BJF5 entry or part of it): as above
T3 sequence (Q6QNM1 whole entry): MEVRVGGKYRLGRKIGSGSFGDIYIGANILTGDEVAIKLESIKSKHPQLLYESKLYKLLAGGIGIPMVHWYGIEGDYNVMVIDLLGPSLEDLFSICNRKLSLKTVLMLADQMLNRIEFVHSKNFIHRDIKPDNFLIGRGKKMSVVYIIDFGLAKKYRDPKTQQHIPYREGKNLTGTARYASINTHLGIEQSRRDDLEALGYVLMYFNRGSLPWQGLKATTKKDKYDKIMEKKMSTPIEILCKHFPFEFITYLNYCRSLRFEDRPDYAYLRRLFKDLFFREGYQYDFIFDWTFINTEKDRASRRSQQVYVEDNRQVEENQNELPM
Chain of TgCKIα (Q6QNM1 whole entry, looked up): as the sequence (Q6QNM1 whole entry) above
Chain of EtCKIα (Q6QNL9 whole entry): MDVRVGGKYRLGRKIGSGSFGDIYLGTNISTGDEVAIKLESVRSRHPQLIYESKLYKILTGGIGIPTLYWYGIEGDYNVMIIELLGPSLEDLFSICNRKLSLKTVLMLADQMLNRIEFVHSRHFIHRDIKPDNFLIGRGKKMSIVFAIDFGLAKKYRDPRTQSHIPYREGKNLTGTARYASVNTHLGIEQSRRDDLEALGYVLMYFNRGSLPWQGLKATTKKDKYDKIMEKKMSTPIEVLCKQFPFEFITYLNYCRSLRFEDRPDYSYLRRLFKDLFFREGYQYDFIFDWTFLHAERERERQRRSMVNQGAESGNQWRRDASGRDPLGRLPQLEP
Chain of FLAGTgCDPK3 (A0A125YQG4 entry or part of it): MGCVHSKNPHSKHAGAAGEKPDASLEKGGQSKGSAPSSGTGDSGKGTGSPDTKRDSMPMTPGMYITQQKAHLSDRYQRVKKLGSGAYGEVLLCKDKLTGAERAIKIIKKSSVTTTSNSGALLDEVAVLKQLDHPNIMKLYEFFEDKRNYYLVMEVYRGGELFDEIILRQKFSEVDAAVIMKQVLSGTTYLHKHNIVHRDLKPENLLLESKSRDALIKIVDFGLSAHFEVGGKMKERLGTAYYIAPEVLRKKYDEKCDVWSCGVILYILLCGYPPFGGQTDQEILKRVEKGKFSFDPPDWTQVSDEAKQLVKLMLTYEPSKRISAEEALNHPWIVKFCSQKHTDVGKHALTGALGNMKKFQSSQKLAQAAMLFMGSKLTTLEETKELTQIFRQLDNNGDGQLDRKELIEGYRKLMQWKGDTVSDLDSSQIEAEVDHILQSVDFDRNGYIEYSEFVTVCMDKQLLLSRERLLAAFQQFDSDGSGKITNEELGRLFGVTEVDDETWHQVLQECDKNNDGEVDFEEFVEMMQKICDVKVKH

What does the source list for `CN1CCC(c2ccn3c(-c4ccnc(N)n4)c(-c4ccc(F)cc4)nc3c2)CC1` [Compound 39, 4[2-(4-Fluorophenyl)1-7-(1-methylpiperidin-4-yl)imidazo[1,2-a]pyridin-3-yl]pyrimidin-2-amine]?
IC50 [1]: 69 nM; IC50 [2]: 0.5 nM; IC50 [3]: > 10000 nM; IC50 [4]: 126 nM; IC50 [5]: 0.5 nM; IC50 [6]: 15 nM

What does the source list for `O=C1Nc2ccccc2/C1=C1/Nc2ccccc2/C1=N\O` [indirubin-3′-monoxime]?
IC50 [7]: 500 nM; IC50 [8]: 172 nM; IC50 [9]: 175 nM
